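Following 48 hours of exposure in 96-well plates, responses at five concentrations were used to interpolate endpoints linearly. GI50 is the concentration that inhibits growth by half.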 The source made the active and inactive calls. No stated cut-off is given here; in the data, active = GI50 up to about 1.1 µM and inactive = higher.
Legend:
Assay in all cases: DTP human tumour cell line panel, 48 h
[1] = test system: LOX IMVI
[2] = test system: OVCAR-4
[3] = test system: SF-295
[4] = test system: OVCAR-5
[5] = test system: 786-0
[6] = test system: M19-MEL
[7] = test system: ACHN
[8] = test system: U-251
[9] = test system: NCI-H460
[10] = test system: SK-MEL-28
[11] = test system: MOLT-4
[12] = test system: CAKI-1
[13] = test system: RPMI-8226
[14] = test system: HCT-116
[15] = test system: SN12C
[16] = test system: BT-549
[17] = test system: Hs-578T
[18] = test system: MDA-N
[19] = test system: MDA-MB-231
[20] = test system: SR

Measured: GI50

COC1=CC(=O)C2C(C1=O)C(c1ccc(Cl)cc1)[C@@H]2C (some centres not stated)
inactive: [1] 22.4 µM | [2] 42.4 µM | [3] 93.1 µM | [4] 30.3 µM | [5] 24.4 µM | [6] 33.7 µM | [7] 17.3 µM | [8] 25.2 µM | [9] 30.1 µM | [10] 28.9 µM | [11] 31.6 µM | [12] 37.8 µM | [13] 39.7 µM | [14] 15.7 µM

Nc1ccc(C(=O)N/C(=C\c2cccc([N+](=O)[O-])c2)c2nc3c4c(ccc3[nH]2)C(=O)c2ccccc2C4=O)cc1
inactive: [1] 15.1 µM | [2] 15 µM | [3] 14 µM | [4] > 100 µM | [5] 17.7 µM | [6] > 100 µM | [15] > 100 µM | [8] 14 µM | [9] 21.3 µM | [10] 30.3 µM | [11] 3.94 µM | [12] 8.69 µM | [13] 6.78 µM | [14] 22 µM

Cc1cn(C2CC(n3cncn3)C(C(C)O)O2)c(=O)[nH]c1=O (configuration not stated)
inactive: [1] > 100 µM | [2] > 100 µM | [3] > 100 µM | [4] > 100 µM | [5] > 100 µM | [6] > 100 µM | [7] > 100 µM | [15] > 100 µM | [8] > 100 µM | [9] > 100 µM | [10] > 100 µM | [11] > 100 µM | [13] > 100 µM | [14] > 100 µM

C/C(CN1C(=O)c2ccccc2C1=O)=N\NS(C)(=O)=O
inactive: [2] > 100 µM | [3] > 100 µM | [4] > 100 µM | [5] > 100 µM | [6] > 100 µM | [7] > 100 µM | [15] > 100 µM | [8] > 100 µM | [9] > 100 µM | [10] > 100 µM | [11] > 100 µM | [12] > 100 µM | [13] > 100 µM | [14] > 100 µM

COC(=O)c1c(C)cccc1C1CN=NC12Cc1ccccc1C2=O (configuration not stated)
inactive: [1] 31.2 µM | [2] > 92.3 µM | [3] 62.2 µM | [16] 54.5 µM | [4] > 100 µM | [5] > 100 µM | [17] 96.2 µM | [7] > 100 µM | [15] > 100 µM | [18] > 100 µM | [8] > 100 µM | [19] 45.7 µM | [20] 47.2 µM | [9] > 75.9 µM | [10] > 71.1 µM | [11] 36.2 µM | [12] 98.6 µM | [13] 35.3 µM | [14] 46.2 µM

N#C[C@@]12CCCC(=O)[C@@H]1[C@H]1CCC[C@H]12
inactive: [1] 14.4 µM | [2] 21.3 µM | [3] 24.7 µM | [16] 17.9 µM | [4] 9.46 µM | [5] 14.7 µM | [17] 31.3 µM | [7] 17.7 µM | [15] 16.4 µM | [18] 18.8 µM | [8] 17.2 µM | [19] 14.6 µM | [20] 26.1 µM | [9] 16.6 µM | [10] 17.7 µM | [11] 21.2 µM | [12] 16.3 µM | [13] 11 µM | [14] 15.5 µM

Cc1nnc(N)nc1/C=C/c1c(O)ccc2ccccc12
inactive: [1] 34.3 µM | [2] 20 µM | [3] 18.6 µM | [16] 37.9 µM | [4] 26.5 µM | [5] 32.4 µM | [17] 26.2 µM | [7] 13.1 µM | [15] 37.5 µM | [18] 28.9 µM | [8] 38.7 µM | [19] > 100 µM | [20] 44.4 µM | [9] 24.5 µM | [10] 29.7 µM | [11] 22.5 µM | [12] 36.4 µM | [13] 30.5 µM | [14] 30.8 µM

NC1=NN(c2ccccc2)C2(O)c3ccncc3C3=NN(c4ccccc4)C(=O)C132 (configuration not stated)
inactive: [1] > 100 µM | [2] 51.2 µM | [3] > 100 µM | [16] > 100 µM | [4] > 100 µM | [5] > 100 µM | [17] > 100 µM | [7] > 100 µM | [15] > 100 µM | [18] > 100 µM | [8] > 100 µM | [19] > 100 µM | [20] > 100 µM | [9] > 100 µM | [10] > 100 µM | [11] > 100 µM | [12] > 100 µM | [13] > 100 µM | [14] > 100 µM

Reference: ChEMBL document CHEMBL1201862, “PubChem BioAssay data set” (2004)
